Consider two compounds from patent publication US4518789A, “Phenyl alpha-acyloxyacetamide derivatives and their therapeutic use” (priority 1983, dated 1985).

Each structure is given as a SMILES string.

The subject of assay [1] is scratching or licking induced by pruritic agent. Kind of assay: Screening for anti-pruritic effect, systemic (subcutaneous) administration, hairless mouse challenged with pruritic agent. The following applies: 5% solution 0.1 ml subcutaneous, twice. It counts as in vivo. How it is done: Either the mouse or the rat may be used as a screening model for anti-pruritic compounds. Again, the hairless mouse or the fuzzy rat is a preferred strain in each species.
A test composition in a volume of 0.1 ml containing 5% phenyl-alpha-acyloxyacetamide derivative in solution was injected subcutaneously to the hairless mouse. The same procedure was repeated once more 3 hours later. Two hours after the second injection the mouse was challenged with a pruritic composition either applied topically or administered subcutaneously. When the challenging composition containing a pruritic agent was given topically the solution in a volume of 0.05 ml was applied to the left dorsal skin. A control vehicle solution containing no pruritic agent in the same volume of 0.05 ml was topically applied on the right dorsal skin. For the next 30 minutes the mouse was carefully observed for signs and symptoms of scratching or licking at the skin sites where the pruritic composition and the control vehicle solution had been topically applied.
If the mouse scratched or licked only the left side of the skin where the pruritic composition had been topically applied the test composition which was injected subcutaneously at two and five hours earlier was determined to have no anti-pruritic property. […]

For assay [2], the system named is hind limb arthritis secondary to hip dysplasia. Kind of assay: Analgesic effects, oral, dogs with arthritis. It counts as in vivo. The following applies: two dogs, oral approximately 8 mg per kg. How it is done:
To test whether in addition to tranquilizing effects in animals, analgesic properties of phenyl-alpha-acyloxyacetamide derivatives of the instant invention might exist we administered systemically these compounds to dogs. N-ethyl phenyl-alpha-acetoxyacetamide or N-phenethyl phenyl-alpha-acetoxyacetamide in single oral doses of approximately 8 mg per kg was given to two dogs disabled with hind limb arthritis secondary to hip dysplasia. One dog weighed 23 kg; the other weighed 28 kg.
The disability in both animals was such that they were unable to jump up upon a test table, 45 cm L×45 cm W×45 cm H, on which had been placed a piece of food as an inducement; nor were they able to run about or romp, their movements being limited to walking with evident stiffness of gait.

As for `CCNC(=O)C(OC(C)=O)c1ccccc1` (stereo not drawn) [N-ethyl phenyl-alpha-acetoxyacetamide], the Anti-pruritic Effect result in assay [1] is “substantial anti-pruritic effect”. Besides, in assay [2], the physical incapacities entry was “diminished” and the “time after administration at which incapacities were diminished” value is “Two to three”.

With `CC(=O)OC(C(=O)NCCc1ccccc1)c1ccccc1` (stereo not drawn) [N-phenethyl phenyl-alpha-acetoxyacetamide], the Anti-pruritic Effect entry in assay [1] is on record as “substantial anti-pruritic effect”. In addition, in assay [2], the physical incapacities result is on record as “diminished” and the “time after administration at which incapacities were diminished” value is “Two to three”.
